# Data from paper PMC10647589, “Heterogeneous Cellular Response of Primary and Metastatic Human Gastric Adenocarcinoma Cell Lines to Magnoflorine and Its Additive Interaction with Docetaxel” (International Journal of Molecular Sciences, 2023).
# How the values were obtained:
# [1] = tested on: ACC-201 human GC cells; assay: MTT assay (viability; isobolographic analysis); assay type: cell-based; conditions: ACC-201, 72 h incubation, mean ± SEM
# Procedure: (§1) The human GC cells ACC-201, AGS, MKN-74 and NCI-N87 were placed in 96-well plates and allowed to adhere overnight. On the following day, the growth medium was removed, and the cells were treated with a series of tested MGN and DCT dilutions (2.0–75 and 0.0004–0.0404 µg/mL, respectively) for 72 h at 37 °C. […] Subsequently, a solution of MTT (5 mg/mL) was added to each well, and the cells were further incubated for 3 h at 37 °C. Tetrazolium salt was reduced to violet formazan derivatives via the succinate dehydrogenase of metabolically active cells. Insoluble formazan compounds formed inside the cells were extracted with a sodium dodecyl sulfate buffer (10% SDS in 0.01 N HCl) overnight to achieve a quantitative assessment of the amount produced. The absorbance of the samples was measured at 570 nm using Infinite M200 Pro microplate reader (Tecan, Männedorf, Switzerland). Cell viability was presented as a percentage relative to the untreated control cells.
# (§2) Interactions between MGN and DCT analyzed after 72 h in four different GC cell lines (ACC-201, AGS, MKN-74 and NCI-N87) were characterized by means of an isobolographic analysis in the MTT assay. The percentage inhibition of cell viability accompanied by the specific concentrations of the tested substances (MGN and DCT) were transferred to the MS Excel spreadsheet, and the data were computed using the log–probit method. Next, the concentration–response effect graphs for the tested drugs (MGN and DCT) were drawn, and the IC50 values for every tested drug were calculated. The cooperative effect of two concentration–response lines was tested for the MGN and DCT combination, as previously described. The calculations of IC50 values (±SEM) were computed with formulas originally derived from the log–probit method and adapted to the in vitro conditions, as described earlier. The concentration–response lines for MGN and DCT were not parallel, and thus, the isobolographic additivity was illustrated graphically as an area bounded by two (upper and lower) lines of additivity. From the experimentally denoted IC50 values for MGN and DCT in the MTT assay, median additive inhibitory concentrations (IC50add) for the mixture (at the fixed ratio of 1:1 of MGN and DCT) in various cell lines (ACC-201, AGS, MKN-74 and NCI-N87) were calculated, as described previously. More information on isobolographic analysis can be found in the literature.
# [2] = tested on: AGS human GC cells; assay: MTT assay (viability; isobolographic analysis); assay type: cell-based; conditions: 72 h incubation, mean ± SEM
# Procedure: as §1, §2
# [3] = tested on: MKN-74 human GC cells; assay: MTT assay (viability; isobolographic analysis); assay type: cell-based; conditions: MKN-74, 72 h incubation, mean ± SEM
# Procedure: as §1, §2
# [4] = tested on: NCI-N87 human GC cells; assay: MTT assay (viability; isobolographic analysis); assay type: cell-based; conditions: NCI-N87, 72 h incubation, mean ± SEM
# Procedure: as §1, §2
# [5] = tested on: ACC-201 human GC cells; assay: Active caspase-3 analysis (flow cytometry); assay type: cell-based; conditions: ACC-201, MGN 10 µg/mL, 72 h
# Procedure: (§3) Human GC cells ACC-201, AGS, MKN-74 and NCI-N87 were seeded in 6-well plates and allowed to adhere overnight. On the following day, the growth medium was replaced with fresh medium, and the cells were exposed to indicated concentrations of MGN (10–40 µg/mL) for 72 h. Apoptotic cells were analyzed using PE Active Caspase-3 Apoptosis Kit (BD Biosciences) according to the manufacturer’s instructions. Briefly, the cells were collected, washed with cold PBS and then incubated in Cytofix/Cytoperm Solution for 20 min on ice. After two washes, the cells were incubated with Active Caspase-3 Antibody in Perm/Wash Buffer for 30 min at room temperature. Finally, the cells were resuspended in Perm/Wash Buffer and quantitative analysis of 10,000 cells per sample was performed through the use of FACS CaliburTM flow cytometer (BD Biosciences, Mountain View, CA, USA).
# [6] = tested on: AGS human GC cells; assay: Active caspase-3 analysis (flow cytometry); assay type: cell-based; conditions: 72 h
# Procedure: as §3
# [7] = tested on: MKN-74 human GC cells; assay: Active caspase-3 analysis (flow cytometry); assay type: cell-based; conditions: MKN-74, MGN 10 µg/mL, 72 h
# Procedure: as §3
# [8] = tested on: zebrafish embryos and larvae; assay: Zebrafish embryo toxicity test (OECD test no. 236, modified); assay type: in vivo
# Procedure: At first, zebrafish embryos were screened and sorted one hour after fertilization. Only perfectly transparent and fertilized embryos were transferred to plastic well plates. […] Developing embryos were incubated in the MGN solutions until 96 hpf. The amounts of MGN absorbed by zebrafish were measured in 96 hpf-old larvae (n = 50 larvae/sample, three samples/dose) through the use of HPLC-MS. The larvae were first washed in medium prior to homogenization with the additive of acetonitrile:water mixture in equal proportions (50:50 v/v). The homogenate was centrifuged at 20,000 rpm for 20 min, and the supernatant was pipetted, filtered through a nylon syringe filter (nominal pore size of 0.1 µm diameter) and subjected to HPLC-MS analysis in the positive ionization mode.
# The following phenotypic features were scored in larvae exposed to different doses of MGN: (I) hatchability at 72 and 96 hpf, (II) morphological anomalies at 96 hpf, and (III) escape response at 96 hpf. Morphological analysis included the presence/lack of swim bladder, body axis/shape, presence/lack of pericardial edema, jaw development, normal/necrotic yolk sac, presence/absence of hemorrhage and changes in pigmentation. For photographs, each larva was anaesthetized and mounted on a glass slide. To evaluate the muscle performance and function in MGN-incubated larvae, in a separate cohort of 96 hours-old larvae, we assessed escape response by touching the tail with the tip of a needle.
smiles,measurement,setting,value
"COc1ccc2c(c1O)-c1c(O)c(OC)cc3c1[C@H](C2)[N+](C)(C)CC3 [MGN, magnoflorine]",IC50,[1],15.8 ± 2.79 µg/mL
same,IC50,[2],17.2 ± 3.59 µg/mL
same,IC50,[3],34.8 ± 6.04 µg/mL
same,IC50,[4],33.3 ± 5 µg/mL
same,% cells with active caspase-3,[5],6.770 ± 0.866%
same,% cells with active caspase-3,[6]; MGN 10 µg/mL,2.390 ± 0.411%
same,% cells with active caspase-3,[6]; MGN 20 µg/mL,4.172 ± 0.422%
same,% cells with active caspase-3,[7],2.633 ± 0.069%
same,Hatching rate,"[8]; MGN 100 µg/mL, scored at 72 hpf",100%
same,Hatching rate,"[8]; MGN 100 µg/mL, scored at 96 hpf",100%
same,Hatching rate,"[8]; MGN 175 µg/mL, scored at 72 hpf",100%
same,Hatching rate,"[8]; MGN 175 µg/mL, scored at 96 hpf",100%
same,Hatching rate,"[8]; MGN 250 µg/mL, scored at 72 hpf",52.77%
same,Hatching rate,"[8]; MGN 250 µg/mL, scored at 96 hpf",94.44%
same,larvae with curved body axis,"[8]; MGN 500 µg/mL, 96 hpf",43%
same,larvae with delayed touch response,"[8]; MGN 500 µg/mL, 96 hpf",70%
same,larvae with heart edema,"[8]; MGN 500 µg/mL, 96 hpf",40%
same,larvae with lack of swim bladder,"[8]; MGN 500 µg/mL, 96 hpf",93%
same,larvae with underdeveloped jaw,"[8]; MGN 500 µg/mL, 96 hpf",90%
same,larvae with yolk sac necrosis,"[8]; MGN 500 µg/mL, 96 hpf",46%
same,Hatching rate,"[8]; MGN 500 µg/mL, scored at 72 hpf",23.33%
same,Hatching rate,"[8]; MGN 500 µg/mL, scored at 96 hpf",86.66%
same,Hatching,"[8]; MGN 750 µg/mL, up to 96 h",none of the larvae hatched
same,Survival,"[8]; MGN 750 µg/mL, up to 96 h",all survived in chorions
same,concentration with no evidence of toxicity,"[8]; developing zebrafish, chronic exposure from 1 hpf to 96 hpf",up to 250 µg/mL
same,morphological parameters scored,"[8]; three lowest concentrations (100, 175, 250 µg/mL), 96 hpf",did not affect any of the parameters scored
